From patent US8076487B2, “Pyridone derivative and herbicide” (Kumiai Chemical Industry Co., Ltd., priority 2006, dated 2011)

Tests used:
Type in all cases: in vivo
[1] = system: Japanese bulrush (Scirpus juncoides Roxb.); experiment: Test Example 1: herbicidal effect by soil application to paddy field; conditions: paddy field soil application; active ingredient 1,000 g per 1 hectare; wettable powder added dropwise to water surface the day after sowing; examined on the 21st day after application
Outline: (§1)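 Under greenhouse conditions, seeds sown on puddled paddy soil in 100 cm2 pots under 3 cm of standing water received the test compound; injury was assessed with a standard scoring scheme three weeks (day 21) after treatment.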

[2] = system: early watergrass (Echinochloa oryzicola Vasing); experiment: as above; conditions: paddy field soil application; active ingredient 1,000 g per 1 hectare; wettable powder added dropwise to water surface the day after sowing; examined on the 21st day after application
Outline: as §1

[3] = system: heartshape false pickerelweed (Monochoria vaginalis (Burm.f.) C.Presl); experiment: as above; conditions: paddy field soil application; active ingredient 1,000 g per 1 hectare; wettable powder added dropwise to water surface the day after sowing; examined on the 21st day after application
Outline: as §1

[4] = system: barnyardgrass (Echinochloa crus-galli (L.) P. Beauv. var. crus-galli); experiment: Test Example 2: herbicidal effect by soil application to upland field; conditions: soil surface spray, upland field soil, 1,000 g active ingredient per hectare, 21st day after application
Outline: (§2)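 Greenhouse pot assay with field soil. Freshly sown seeds were covered with soil, then the surface was sprayed with diluted wettable powder: 1,000 g a.i./ha, 1,000 L/ha. Herbicidal effect scored at day 21 by standard criteria.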

[5] = system: green foxtail (Setaria viridis (L.) P. Beauv.); experiment: as above; conditions: soil surface spray, upland field soil, 1,000 g active ingredient per hectare, 21st day after application
Outline: as §2

[6] = system: slender amaranth (Amaranthus viridis L.); experiment: as above; conditions: soil surface spray, upland field soil, 1,000 g active ingredient per hectare, 21st day after application
Outline: as §2

[7] = system: velvetleaf (Abutilon theophrasti medicus); experiment: as above; conditions: soil surface spray, upland field soil, 1,000 g active ingredient per hectare, 21st day after application
Outline: as §2

[8] = system: barnyardgrass (Echinochloa crus-galli (L.) P. Beauv. var. crus-galli); experiment: Test Example 3: herbicidal effect by application to upland field (foliage treatment); conditions: 14th day after application; for herbicidal effect (index), Barnyardgrass: foliage treatment, plants grown two weeks, 1,000 g active ingredient per hectare; for herbicidal effect, Barnyardgrass: foliage treatment, 1,000 g active ingredient per 1 hectare, greenhouse
Outline: (§3)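 Foliage treatment, greenhouse: 2-week-old plants in field soil; wettable powder in water sprayed over the top at 1,000 g a.i./ha (1,000 L/ha); rating on day 14 post-application.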

[9] = system: green foxtail (Setaria viridis (L.) P. Beauv.); experiment: as above; conditions: 14th day after application; for herbicidal effect (index), Green Foxtail: foliage treatment, plants grown two weeks, 1,000 g active ingredient per hectare; for herbicidal effect, Green Foxtail: foliage treatment, 1,000 g active ingredient per 1 hectare, greenhouse
Outline: as §3

[10] = system: slender amaranth (Amaranthus viridis L.); experiment: as above; conditions: 14th day after application; for herbicidal effect (index), Slender Amaranth: foliage treatment, plants grown two weeks, 1,000 g active ingredient per hectare; for herbicidal effect, Slender Amaranth: foliage treatment, 1,000 g active ingredient per 1 hectare, greenhouse
Outline: as §3

[11] = system: velvetleaf (Abutilon theophrasti medicus); experiment: as above; conditions: 14th day after application; for herbicidal effect (index), Velvetleaf: foliage treatment, plants grown two weeks, 1,000 g active ingredient per hectare; for herbicidal effect, Velvetleaf: foliage treatment, 1,000 g active ingredient per 1 hectare, greenhouse
Outline: as §3

Row | Structure (SMILES) | herbicidal effect, Scirpus juncoides Roxb. [1] | herbicidal effect, Echinochloa oryzicola Vasing [2] | herbicidal effect, Monochoria vaginalis (Burm. f.) C. Presl [3] | herbicidal effect (index), Barnyardgrass [4] | herbicidal effect (index), Green Foxtail [5] | herbicidal effect (index), Slender Amaranth [6] | herbicidal effect (index), Velvetleaf [7] | herbicidal effect (index), Barnyardgrass [8] | herbicidal effect (index), Green Foxtail [9] | herbicidal effect (index), Slender Amaranth [10] | herbicidal effect (index), Velvetleaf [11] | herbicidal effect, Barnyardgrass [8] | herbicidal effect, Green Foxtail [9] | herbicidal effect, Slender Amaranth [10] | herbicidal effect, Velvetleaf [11]
1 | O=C1CCCC(O)=C1C(=O)c1ccc(C(F)(F)F)n(-c2ccc(Br)cc2)c1=O [I-90] | 5 (90% or more of herbicidal effect and crop phytotoxicity) | 5 (90% or more of herbicidal effect and crop phytotoxicity) | 5 (90% or more of herbicidal effect and crop phytotoxicity) | 5 (90% or more of herbicidal effect and crop phytotoxicity) | 5 (90% or more of herbicidal effect and crop phytotoxicity) | 5 (90% or more of herbicidal effect and crop phytotoxicity) | 5 (90% or more of herbicidal effect and crop phytotoxicity) | 5 (90% or more of herbicidal effect and crop phytotoxicity) | 5 (90% or more of herbicidal effect and crop phytotoxicity) | 5 (90% or more of herbicidal effect and crop phytotoxicity) | 5 (90% or more of herbicidal effect and crop phytotoxicity) | – | – | – | –
2 | O=C1CCCC(O)=C1C(=O)c1ccc(C(F)(F)F)n(CS(=O)(=O)CC2CC2)c1=O [I-58] | 5 (90% or more of herbicidal effect and crop phytotoxicity) | 5 (90% or more of herbicidal effect and crop phytotoxicity) | 5 (90% or more of herbicidal effect and crop phytotoxicity) | 5 (90% or more of herbicidal effect and crop phytotoxicity) | 5 (90% or more of herbicidal effect and crop phytotoxicity) | 5 (90% or more of herbicidal effect and crop phytotoxicity) | 5 (90% or more of herbicidal effect and crop phytotoxicity) | 5 (90% or more of herbicidal effect and crop phytotoxicity) | 5 (90% or more of herbicidal effect and crop phytotoxicity) | 5 (90% or more of herbicidal effect and crop phytotoxicity) | 5 (90% or more of herbicidal effect and crop phytotoxicity) | – | – | – | –
3 | O=C1CCCC(O)=C1C(=O)c1ccc(C(F)(F)F)n(CSC2CCCC2)c1=O [I-59] | 5 (90% or more of herbicidal effect and crop phytotoxicity) | 5 (90% or more of herbicidal effect and crop phytotoxicity) | 5 (90% or more of herbicidal effect and crop phytotoxicity) | 5 (90% or more of herbicidal effect and crop phytotoxicity) | 4 (70 to less than 90% of herbicidal effect and crop phytotoxicity) | 5 (90% or more of herbicidal effect and crop phytotoxicity) | 5 (90% or more of herbicidal effect and crop phytotoxicity) | 5 (90% or more of herbicidal effect and crop phytotoxicity) | 5 (90% or more of herbicidal effect and crop phytotoxicity) | 5 (90% or more of herbicidal effect and crop phytotoxicity) | 5 (90% or more of herbicidal effect and crop phytotoxicity) | – | – | – | –
4 | O=C1CCCC(O)=C1C(=O)c1ccc(C(F)(F)F)n(-c2ccc([N+](=O)[O-])cc2)c1=O [I-88] | 5 (90% or more of herbicidal effect and crop phytotoxicity) | 5 (90% or more of herbicidal effect and crop phytotoxicity) | 5 (90% or more of herbicidal effect and crop phytotoxicity) | 5 (90% or more of herbicidal effect and crop phytotoxicity) | 5 (90% or more of herbicidal effect and crop phytotoxicity) | 5 (90% or more of herbicidal effect and crop phytotoxicity) | 5 (90% or more of herbicidal effect and crop phytotoxicity) | 5 (90% or more of herbicidal effect and crop phytotoxicity) | 5 (90% or more of herbicidal effect and crop phytotoxicity) | 5 (90% or more of herbicidal effect and crop phytotoxicity) | 5 (90% or more of herbicidal effect and crop phytotoxicity) | – | – | – | –
5 | COC(=O)N(C)n1c(C(F)(F)F)ccc(C(=O)C2=C(O)CCCC2=O)c1=O [I-190] | 5 (90% or more of herbicidal effect and crop phytotoxicity) | 5 (90% or more of herbicidal effect and crop phytotoxicity) | 5 (90% or more of herbicidal effect and crop phytotoxicity) | 5 (90% or more of herbicidal effect and crop phytotoxicity) | 4 (70 to less than 90% of herbicidal effect and crop phytotoxicity) | 5 (90% or more of herbicidal effect and crop phytotoxicity) | 5 (90% or more of herbicidal effect and crop phytotoxicity) | – | – | – | – | 5 (90% or more of herbicidal effect and crop phytotoxicity) | 5 (90% or more of herbicidal effect and crop phytotoxicity) | 5 (90% or more of herbicidal effect and crop phytotoxicity) | 5 (90% or more of herbicidal effect and crop phytotoxicity)
6 | COc1cc(-n2c(C(F)(F)F)ccc(C(=O)c3cnn(C)c3O)c2=O)ccc1Cl [IV-90] | 5 (90% or more of herbicidal effect and crop phytotoxicity) | 5 (90% or more of herbicidal effect and crop phytotoxicity) | 5 (90% or more of herbicidal effect and crop phytotoxicity) | 5 (90% or more of herbicidal effect and crop phytotoxicity) | 3 (50 to less than 70% of herbicidal effect and crop phytotoxicity) | 5 (90% or more of herbicidal effect and crop phytotoxicity) | 5 (90% or more of herbicidal effect and crop phytotoxicity) | – | – | – | – | 5 (90% or more of herbicidal effect and crop phytotoxicity) | 5 (90% or more of herbicidal effect and crop phytotoxicity) | 5 (90% or more of herbicidal effect and crop phytotoxicity) | 5 (90% or more of herbicidal effect and crop phytotoxicity)
